Test results as given in article PMC11117723, “Benzene with Alkyl Chains Is a Universal Scaffold for Multivalent Virucidal Antivirals” (ACS Central Science, 2024).
“Also recorded” adds a separate entry of the source. Like-named read-outs stand apart in the source and are kept apart here.

How the values were obtained:
[1] = system: Vero cells; assay: Vero cell cytotoxicity (MTS assay); assay type: cell-based; settings: 24 h, read-out: CC50 (95% CI), Vero cells
[2] = system: MDCK cells; settings: read-out: CC50 (95% CI), MDCK cells
[3] = system: HSV-2; assay: HSV-2 DNA release (DNA exposure) assay with DNase; settings: 43.2 and 86.5 μM
Method: To determine whether the virucidal effect is caused by the damage to the viral particles, we performed DNA release assays. Briefly, we incubated HSV-2 and B6C11S mixtures with DNase or buffer, inactivated the DNase, and then quantified the DNA amounts in the two samples (Figure 2c).

[4] = system: Raji cells; assay: Raji cell cytotoxicity (Zombie NIR flow cytometry); settings: read-out: CC50 (95% CI), Raji cells; EBV line
[5] = system: SARS-CoV-2 Alpha; assay type: in vivo, Syrian hamster
[6] = system: HEK293T cells; assay: HEK293T cell cytotoxicity (Zombie NIR flow cytometry); settings: read-out: CC50 (95% CI), 293T cells; HEK293T cells; KSHV line
[7] = system: HSV-2; assay: HSV-2 inhibition under four treatment conditions (cell pretreatment, virus pretreatment, cotreatment, post-treatment); assay type: cell-based
[8] = system: TZM-bl cells; assay: TZM-bl cell cytotoxicity (WST-1); settings: read-out: CC50 (95% CI), TZM-bl cells; HIV-1 line
[9] = system: Vero E6 cells

`O=S(=O)(O)OCCCCCCCCCCCSCc1c(CSCCCCCCCCCCCOS(=O)(=O)O)c(CSCCCCCCCCCCCOS(=O)(=O)O)c(CSCCCCCCCCCCCOS(=O)(=O)O)c(CSCCCCCCCCCCCOS(=O)(=O)O)c1CSCCCCCCCCCCCOS(=O)(=O)O` [B6C11S] was tested, and the CC50 [1] was 200 µM, the CC50 [2] was over 5.4 µM and the “release of viral DNA (HSV-2)” value [3] was “induced the release of viral DNA”. For the same compound, the CC50 [4] was over 162 µM, the “body weight change of infected hamsters” value ([5]; […], vs untreated group) was “no significant change” and the “body weight change of infected hamsters” value ([5]; hamster, in vivo) was “decreased the body weight change”. The “histopathological evaluation of lung tissues” value ([5]; hamster, in vivo) was “improved pulmonary conditions”, the “infectious viral titer (TCID50) in the lungs vs untreated” value ([5]; hamster, in vivo) was “significantly decreased the viral titer; also recorded: significant reduction in the infectious viral load” and the “severe lung damage (histopathology categories E and F)” value ([5]; hamster, in vivo) was “reducing severe lung damage”. The “viral RNA copies in lung vs untreated” value ([5]; hamster, in vivo) was “significantly decreased viral RNA copies”, the “viral RNA levels in oral swab vs untreated” value ([5]; hamster, in vivo) was “significantly lower viral RNA levels” and the “viral titers (viral RNA) in swab samples and lung tissues vs untreated” value ([5]; hamster, in vivo) was “did not find any notable differences; also recorded: No statistical difference”. The CC50 [6] was over 162 µM, the “HSV-2 inhibition, cell pretreatment” value ([7]; condition (i) cell pretreatment, 21.6 μM) was “no inhibition” and the “decrease of percentage of infected cells” value ([7]; condition (ii) virus pretreatment, 5.4 μM) was “over 85%”. For the same compound, the “decrease of percentage of infected cells” value ([7]; condition (iii) cotreatment, 5.4 μM) was “over 85%”, the “decrease of percentage of infected cells” value ([7]; condition (iv) post-treatment, 21.6 μM) was 85% and the CC50 [8] was over 54 µM. For the same compound, the CC50 ([9]; read-out: CC50 (95% CI), Vero E6 cells, SARS-CoV-2 (Alpha) line) was 17.5 µM and the CC50 ([9]; read-out: CC50 (95% CI), Vero E6 cells, value repeated in the SARS-CoV-2 (Omicron) line) was 17.5 µM.
